For series [1], the system named is SARS-CoV-2^WK-521. Kind of series: Antiviral assay: viral RNA in culture supernatants by RNA-qPCR (RT-qPCR), VeroE6 cells. It counts as cell-based. The following applies: for Selectivity index: ratio of CC50 to EC50, VeroE6 cells. On the technique in general: Quantitative PCR measures a nucleic acid by following its amplification.
The subject of series [2] is SARS-CoV-2^WK-521. Nature of the series: Immunocytochemistry, high-stringency assay (VeroE6^TMPRSS2 cells and SARS-CoV-2^WK-521). It counts as cell-based. Conditions: VeroE6^TMPRSS2 cells; for Block of infectivity and cytopathic effect of SARS-CoV-2^WK-521 (immunocytochemistry): overall statement, Fig. 3B; for Observation by immunocytochemistry: 100 μM; for Antiviral effect seen by immunocytochemistry: 1 and 10 μM.

Series [3] relates to SARS-CoV-2^WK-521. Kind of series: Immunocytochemistry, low-stringency assay (VeroE6 cells and SARS-CoV-2^WK-521). It counts as cell-based. The following applies: VeroE6 cells; for Block of SARS-CoV-2^WK-521 infection (immunocytochemistry): overall statement over the concentrations tested.
Series [4] is described as follows: Cytotoxicity, WST-8 assay (Cell Counting Kit-8). It counts as cell-based. Conditions: African green monkey, VeroE6 cells. (In general: Tetrazolium assays rely on reduction of a dye to a coloured formazan, in cell work by metabolically active cells.)
In another series the test system is VeroE6 cells. Kind of series: Cytotoxicity, WST-8 assay (Cell Counting Kit-8). It counts as cell-based. The following applies: concentrations up to 100 μM.
In another series the target is SARS-CoV-2 M^pro (Severe acute respiratory syndrome coronavirus 2, UniProt P0DTD1). Kind of series: M^pro molecular weight analysis with HPLC/MS (covalent binding). Conditions: 100 μM compound, 37°C, 30 min.
Series [5] relates to SARS-CoV-2^WK-521. Conditions: VeroE6 cells; 100 μM; 3 days.
In another series the test system is SARS-CoV-2. The following applies: Calu-3 cells exposed to SARS-CoV-2; cited from earlier work.
The next series deals with HIV-1 protease (Human immunodeficiency virus type 1 group M subtype B, UniProt P04585). Nature of the series: Thermal stability of HIV-1 protease by differential scanning fluorimetry (control). It counts as binding. Conditions: HIV-1 protease 5 μM + 5 μM compound (1:1); protease alone 54.78°C. (In general: In DSF a fluorescence change marks the thermal transition of the protein.)

Where [6] appears, read: Severe acute respiratory syndrome coronavirus 2, Vero C1008, read-out: EC50 ±SD.

Each structure is given as a SMILES string. Entries after “also recorded” stand apart in the source; their conditions may differ. Like-named read-outs stand apart in the source and are kept apart here. A value given as a limit tells only on which side of the number the result lay.

Take `NC(=O)c1nc(F)c[nH]c1=O` [Favipiravir, favipiravir]: the EC50 (in general, the concentration at which the effect is half-maximal) in the series with SARS-CoV-2^WK-521 [1] (setting [6]) was above 100 µM. Also, the “Block of infectivity and cytopathic effect of SARS-CoV-2^WK-521 (immunocytochemistry)” value in the series on SARS-CoV-2^WK-521 [2] is reported as “failed to block the infection”. Moreover, the “Block of SARS-CoV-2^WK-521 infection (immunocytochemistry)” value (from here on “Block of SARS-CoV-2^WK-521 infection”) in the series with SARS-CoV-2^WK-521 [3] is listed as “failed to block SARS-CoV-2 infection”. Also, in series [4], the cytotoxic concentration (CC50) (as a rule, the concentration at which the toxic effect on the cells reaches its halfway point) at 3 days was above 100 µM. In addition, the “Cytotoxicity (in words)” value with VeroE6 cells was “nontoxic at all concentrations tested”.
Consider `CCN(CCO)CCCC(C)Nc1ccnc2cc(Cl)ccc12` (stereo not drawn) [Hydroxychloroquine, hydroxychloroquine], for which the EC50 in the series on SARS-CoV-2^WK-521 [1] (setting [6]) was 5.1 ± 3.4 µM. Also, in the series on SARS-CoV-2^WK-521 [1], the Selectivity index was above 20. The values for the Observation by immunocytochemistry entry with SARS-CoV-2^WK-521 [3] (10 μM) and in the series with SARS-CoV-2^WK-521 [3] (100 μM) were “slightly block infectivity” and “almost all the cells were shed from the wells; also recorded: virtually no cells were left”, respectively. In the series on SARS-CoV-2^WK-521 [3], the “Block of SARS-CoV-2^WK-521 infection” value is “did not exert significant antiviral activity; also recorded: failed to block the infectivity”. In addition, the CC50 at 3 days in series [4] was above 100 µM. Also, in the series with VeroE6 cells, the “Cytotoxicity (in words)” value is given as “nontoxic at up to 100 μM”.
In the case of `CCN(CC)CCCC(C)Nc1ccnc2cc(Cl)ccc12` (stereo not drawn) [Chloroquine, chloroquine], the Observation by immunocytochemistry entry in the series with SARS-CoV-2^WK-521 [3] (10 μM) is reported as “slightly block infectivity”; in the series on SARS-CoV-2^WK-521 [3] (100 μM), “almost all the cells were shed from the wells”; in the series with SARS-CoV-2^WK-521 [3] (100 μM, listed as chloroquine), “almost all VeroE6 cells were lost”. In addition, the “Block of SARS-CoV-2^WK-521 infection” value in the series on SARS-CoV-2^WK-521 [3] is on record as “failed to block the infectivity”.
For `C=CCn1ccc2c(C(=O)Oc3cncc(Cl)c3)cccc21` [GRL-0820], in the series with SARS-CoV-2^WK-521 [1] (Severe acute respiratory syndrome coronavirus 2, Vero C1008, read-out: Anti-SARS-CoV-2 EC50), the EC50 is 15 ± 18 µM. Further, the half-maximal effective concentration (EC50) in the series with SARS-CoV-2^WK-521 [1] (setting [6]) came to 23 ± 5 µM. For the same compound, the Selectivity index in the series on SARS-CoV-2^WK-521 [1] was above 4.3. Further, the “Increase of the mass of M^pro” value at SARS-CoV-2 M^pro worked out at 183.85 amu. Also, the “Average mass of the major M^pro species with compound” value on SARS-CoV-2 M^pro (TOF MS) is recorded as 34,037.21. Besides, in the series with SARS-CoV-2^WK-521 [2], the Observation by immunocytochemistry entry is given as “viral breakthrough had occurred”; the “Block of infectivity and cytopathic effect of SARS-CoV-2^WK-521 (immunocytochemistry)” value is “potently blocked; also recorded: permitted viral breakthrough”. Also, the “Block of SARS-CoV-2^WK-521 infection” value in the series on SARS-CoV-2^WK-521 [3] is given as “permitted viral breakthrough”. For the same compound, in series [4], the CC50 at 3 days was above 100 µM.
Consider `Cc1c(O)cccc1C(=O)N[C@@H](CSc1ccccc1)[C@H](O)CN1C[C@H]2CCCC[C@H]2C[C@H]1C(=O)NC(C)(C)C` [Nelfinavir, nelfinavir], for which the concentration for a half-maximal effect (EC50) in the series on SARS-CoV-2^WK-521 [1] (setting [6]) was found to be 3.1 µM. Further, in the series on SARS-CoV-2^WK-521 [1], the Selectivity index was found to be 17. In the series on SARS-CoV-2^WK-521 [2], the Observation by immunocytochemistry entry is reported as “most of the cells were lost”; the “Antiviral effect seen by immunocytochemistry” value is given as “no detectable antiviral activity”; the “Block of infectivity and cytopathic effect of SARS-CoV-2^WK-521 (immunocytochemistry)” value is given as “failed to block the infection”. Further, the “Block of SARS-CoV-2^WK-521 infection” value with SARS-CoV-2^WK-521 [3] is “failed to block SARS-CoV-2 infection”. In series [4], the CC50 at 3 days turned out to be 53 ± 8 µM.
Consider `Cc1cccc(C)c1OCC(=O)N[C@@H](Cc1ccccc1)[C@@H](O)C[C@H](Cc1ccccc1)NC(=O)[C@H](C(C)C)N1CCCNC1=O` [Lopinavir, lopinavir], for which, in the series on SARS-CoV-2^WK-521 [1] (setting [6]), the 50% effective concentration (EC50) is 19 ± 8 µM. In addition, in the series on SARS-CoV-2^WK-521 [1], the Selectivity index is 2.7. Besides, in the series with SARS-CoV-2^WK-521 [2], the Observation by immunocytochemistry entry was “most of the cells were lost”; the “Antiviral effect seen by immunocytochemistry” value is given as “no detectable antiviral activity”; the “Block of infectivity and cytopathic effect of SARS-CoV-2^WK-521 (immunocytochemistry)” value is listed as “failed to block the infection”. Moreover, the “Block of SARS-CoV-2^WK-521 infection” value in the series on SARS-CoV-2^WK-521 [3] is recorded as “failed to block SARS-CoV-2 infection”. Moreover, the CC50 at 3 days in series [4] stood at 51 ± 5 µM.
For the compound `CCC(CC)COC(=O)[C@H](C)N[P@](=O)(OC[C@H]1O[C@@](C#N)(c2ccc3c(N)ncnn23)[C@H](O)[C@@H]1O)Oc1ccccc1` [Remdesivir, remdesivir], the EC50 in the series on SARS-CoV-2^WK-521 [1] (setting [6]) is 1.2 ± 0.06 µM. Also, the Selectivity index in the series with SARS-CoV-2^WK-521 [1] is above 83. Further, the Observation by immunocytochemistry result was “essentially no infected cells seen” with SARS-CoV-2^WK-521 [2], “further suppression of viral replication” with SARS-CoV-2^WK-521 [3] (10 μM) and “nearly complete” in the series on SARS-CoV-2^WK-521 [3] (100 μM). Also, the “Block of infectivity and cytopathic effect of SARS-CoV-2^WK-521 (immunocytochemistry)” value in the series with SARS-CoV-2^WK-521 [2] is given as “potently blocked; also recorded: permitted viral breakthrough”. Further, the “Block of SARS-CoV-2^WK-521 infection” value in the series on SARS-CoV-2^WK-521 [3] was “significantly blocked SARS-CoV-2 infection but allowed viral breakthrough”. The “Protection of virus-exposed cells (light microscopy)” value in the series on SARS-CoV-2^WK-521 [5] is “appeared to be protected”. The compound further had a CC50 at 3 days in [4] above 100 µM.
Consider `O=C(Oc1cncc(Cl)c1)c1cccc2[nH]ccc12` [GRL-0920], for which, in the series with SARS-CoV-2^WK-521 [1] (setting [6]), the EC50 stood at 8.6 ± 2.8 µM. The Observation by immunocytochemistry entry in the series on SARS-CoV-2^WK-521 [2] is given as “essentially no infected cells seen”; in the series with SARS-CoV-2^WK-521 [3] (10 μM) it was “further suppression of viral replication”; in the series on SARS-CoV-2^WK-521 [3] (100 μM), “completely blocked; also recorded: complete”. Also, the “Block of infectivity and cytopathic effect of SARS-CoV-2^WK-521 (immunocytochemistry)” value in the series with SARS-CoV-2^WK-521 [2] is given as “potently blocked; also recorded: completely blocked”. In addition, the “Block of SARS-CoV-2^WK-521 infection” value with SARS-CoV-2^WK-521 [3] is listed as “completely blocked the infectivity”. For the same compound, the “Protection of virus-exposed cells (light microscopy)” value in the series with SARS-CoV-2^WK-521 [5] is “appeared to be protected”. In series [4], this compound returned a CC50 at 3 days above 100 µM.
Turning to `N=C(N)c1ccc2cc(OC(=O)c3ccc(N=C(N)N)cc3)ccc2c1` [Nafamostat, nafamostat], in the series on SARS-CoV-2, the EC50 is 0.005 µM. Besides, the “Cytotoxicity seen in immunocytochemistry” value with SARS-CoV-2^WK-521 [3] is on record as “did not exert significant toxicity; also recorded: not significantly cytotoxic”. The figures for the “Block of SARS-CoV-2^WK-521 infection” value in the series with SARS-CoV-2^WK-521 [3] and in the series with SARS-CoV-2^WK-521 [3] (listed as nafamostat) were “inactive against the virus” and “did not exert significant antiviral activity; also recorded: failed to block SARS-CoV-2 infection”, respectively. Besides, the CC50 at 3 days in [4] is above 100 µM. Also, in the series with VeroE6 cells, the “Cytotoxicity (in words)” value was “nontoxic at all concentrations tested”.
`CC(=O)Oc1ccccc1C(=O)Nc1ncc([N+](=O)[O-])s1` [Nitazoxanide, nitazoxanide]: the EC50 with SARS-CoV-2^WK-521 [1] (setting [6]) is 31 ± 6 µM. Also, the Selectivity index with SARS-CoV-2^WK-521 [1] is 2.8. The Observation by immunocytochemistry result in the series with SARS-CoV-2^WK-521 [3] (100 μM) was “only a few nuclei remained”; with SARS-CoV-2^WK-521 [3] (1 and 10 μM), “did not exert activity against the virus”. Moreover, the “Block of SARS-CoV-2^WK-521 infection” value in the series with SARS-CoV-2^WK-521 [3] is recorded as “did not block the infectivity”. Besides, in series [4], the midpoint of cytotoxicity, the CC50 at 3 days, lay at 88 ± 3 µM.
In the case of `CC(C)CN(C[C@@H](O)[C@H](Cc1cc(F)cc(F)c1)NC(=O)O[C@H]1C2COC3OCC1C3C2)S(=O)(=O)c1ccc2nc(NC3CC3)sc2c1` (stereo partly drawn) [GRL-142], at HIV-1 protease, the “Tm of HIV-1 protease” value is 87.13 °C.
